# Data published in patent publication US11180474B2 (BRISTOL-MYERS SQUIBB COMPANY, priority 2016, dated 2021).
# Columns and labels:
# [1] = target: T1, human TLR9 (Homo sapiens, UniProt Q9NR96); experiment: TLR9 inhibition reporter assay (HEK-Blue cells, SEAP reporter, ODN2006 stimulation); assay type: cell-based; settings: HEK-Blue cells overexpressing human TLR9, ODN2006 5 nM
# T1 construct: host or cells: HEK-Blue cells
# T1 sequence (Q9NR96 26-1032): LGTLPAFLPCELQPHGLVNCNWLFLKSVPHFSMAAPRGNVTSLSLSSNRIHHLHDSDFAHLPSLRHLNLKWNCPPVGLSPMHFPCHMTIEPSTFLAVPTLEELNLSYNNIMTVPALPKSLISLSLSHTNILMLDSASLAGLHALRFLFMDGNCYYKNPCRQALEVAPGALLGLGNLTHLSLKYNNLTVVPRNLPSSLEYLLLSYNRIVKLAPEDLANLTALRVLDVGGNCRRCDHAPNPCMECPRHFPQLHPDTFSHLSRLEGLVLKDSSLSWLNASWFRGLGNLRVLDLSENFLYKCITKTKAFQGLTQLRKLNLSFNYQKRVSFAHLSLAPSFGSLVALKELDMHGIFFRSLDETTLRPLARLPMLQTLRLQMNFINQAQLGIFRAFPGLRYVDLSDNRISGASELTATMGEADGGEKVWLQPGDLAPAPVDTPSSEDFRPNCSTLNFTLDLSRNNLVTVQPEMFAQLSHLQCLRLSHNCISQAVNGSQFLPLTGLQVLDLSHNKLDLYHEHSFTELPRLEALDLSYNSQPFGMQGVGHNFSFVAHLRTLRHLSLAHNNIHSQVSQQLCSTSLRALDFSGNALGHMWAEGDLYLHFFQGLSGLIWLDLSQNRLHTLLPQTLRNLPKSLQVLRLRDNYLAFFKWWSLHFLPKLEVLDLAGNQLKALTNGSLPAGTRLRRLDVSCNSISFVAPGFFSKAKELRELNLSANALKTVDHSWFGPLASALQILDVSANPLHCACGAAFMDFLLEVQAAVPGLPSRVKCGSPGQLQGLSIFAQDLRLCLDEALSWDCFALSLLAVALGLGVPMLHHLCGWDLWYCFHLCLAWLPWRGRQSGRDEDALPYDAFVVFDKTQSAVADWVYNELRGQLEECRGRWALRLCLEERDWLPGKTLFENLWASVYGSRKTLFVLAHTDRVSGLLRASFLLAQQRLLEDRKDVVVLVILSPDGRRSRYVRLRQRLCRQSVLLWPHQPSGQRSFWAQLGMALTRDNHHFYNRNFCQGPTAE
# Summary of the method: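 Screening used HEK-Blue cells overexpressing one human TLR (7, 8 or 9) and an IFN-β minimal promoter–NF-κB/AP-1 SEAP construct. Stimulation lasted 22 h at 37 °C with receptor-specific agonist: gardiquimod, R848 or ODN2006 at 7.5 μM, 15.9 μM and 5 nM.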
# [2] = target: T2, human TLR8 (Homo sapiens, UniProt Q9NR97); experiment: TLR8 inhibition reporter assay (HEK-Blue cells, SEAP reporter, R848 stimulation); assay type: cell-based; settings: HEK-Blue cells overexpressing human TLR8, R848 15.9 μM
# T2 construct: host or cells: HEK-Blue cells
# T2 sequence (Q9NR97 27-1041): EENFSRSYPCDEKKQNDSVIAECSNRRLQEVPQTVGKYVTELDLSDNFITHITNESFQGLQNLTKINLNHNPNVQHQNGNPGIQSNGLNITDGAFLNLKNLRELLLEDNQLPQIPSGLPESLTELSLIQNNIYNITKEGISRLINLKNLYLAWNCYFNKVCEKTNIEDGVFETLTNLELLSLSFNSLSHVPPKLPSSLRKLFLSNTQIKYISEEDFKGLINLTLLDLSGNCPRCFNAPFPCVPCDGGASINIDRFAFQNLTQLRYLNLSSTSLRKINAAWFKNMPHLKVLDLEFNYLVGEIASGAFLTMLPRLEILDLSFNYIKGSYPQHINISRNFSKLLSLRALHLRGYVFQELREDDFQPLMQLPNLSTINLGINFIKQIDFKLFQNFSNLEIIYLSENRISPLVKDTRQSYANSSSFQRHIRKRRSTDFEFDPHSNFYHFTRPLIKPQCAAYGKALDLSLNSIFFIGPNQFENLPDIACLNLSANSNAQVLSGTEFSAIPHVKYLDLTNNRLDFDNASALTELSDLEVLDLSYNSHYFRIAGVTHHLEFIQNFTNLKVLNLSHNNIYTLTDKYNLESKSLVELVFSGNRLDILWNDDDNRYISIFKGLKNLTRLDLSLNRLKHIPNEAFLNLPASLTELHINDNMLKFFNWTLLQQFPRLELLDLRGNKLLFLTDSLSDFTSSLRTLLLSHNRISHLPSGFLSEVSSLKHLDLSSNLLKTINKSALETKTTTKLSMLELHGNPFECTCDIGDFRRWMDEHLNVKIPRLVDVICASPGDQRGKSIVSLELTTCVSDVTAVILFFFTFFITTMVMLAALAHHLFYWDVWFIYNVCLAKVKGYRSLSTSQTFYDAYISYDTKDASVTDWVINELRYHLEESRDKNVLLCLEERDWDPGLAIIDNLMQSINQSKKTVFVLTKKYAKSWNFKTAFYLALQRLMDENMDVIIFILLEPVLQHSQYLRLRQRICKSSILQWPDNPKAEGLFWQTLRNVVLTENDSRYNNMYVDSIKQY
# Summary of the method: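 Dose-response testing from 0.05 nM to 50 μM final was done on reporter cells for 22 hours at 37° C. Secreted SEAP was then detected, and inhibition was calculated as percent reduction of the agonist-plus-DMSO signal compared with wells given a known inhibitor.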
SMILES,IC50 [1] [µM],IC50 [2] [µM]
"COc1ccc(-c2[nH]c3ccc(C4CCN(C5CCN(C(C)C)CC5)CC4)cc3c2CC(F)(F)F)cc1OC [Example 412, 2-(3,4-dimethoxyphenyl)-5-(1′-isopropyl-[1,4′-bipiperidin]-4-yl)-3-(2,2,2-trifluoroethyl)-1H-indole]",0.247,0.021
"COc1ccc(-c2[nH]c3ccc(C4CCN(C5CCN(CC(C)(C)C)CC5)CC4)cc3c2C)cc1OC [Example 75, 2-(3,4-dimethoxyphenyl)-3-methyl-5-(1′-neopentyl-[1,4′-bipiperidin]-4-yl)-1H-indole]",0.169,0.325
"CNCC(=O)N1CCC(c2ccc3[nH]c(-c4ccc(OC)c(OC)c4)c(CC(F)(F)F)c3c2)CC1 [Example 414, 1-(4-(2-(3,4-dimethoxyphenyl)-3-(2,2,2-trifluoroethyl)-1H-indol-5-yl)piperidin-1-yl)-2-(methylamino)ethanone]",1.17,0.086
"COc1ccc(-c2[nH]c3ccc(C4CCN(C5CCN(Cc6ccco6)CC5)CC4)cc3c2C)cc1OC [Example 76, 2-(3,4-dimethoxyphenyl)-5-(1′-(furan-2-ylmethyl)-[1,4′-bipiperidin]-4-yl)-3-methyl-1H-indole]",0.172,0.238
"CCN1CCC(N2CCC(c3ccc4[nH]c(-c5ccc(OC)c(OC)c5)c(C)c4c3)CC2)CC1 [Example 44, 2-(3,4-dimethoxyphenyl)-5-(1′-ethyl-[1,4′-bipiperidin]-4-yl)-3-methyl-1H-indole]",0.301,0.926
"COc1ccc(-c2[nH]c3ccc(C4CCN(C5CCN(CC6CCCCC6)CC5)CC4)cc3c2C)cc1OC [Example 58, 5-(1′-(cyclohexylmethyl)-[1,4′-bipiperidin]-4-yl)-2-(3,4-dimethoxyphenyl)-3-methyl-1H-indole]",0.086,0.258
"CCN(CC)C(=O)C1CCCN(CC(=O)N2CCC(c3ccc4[nH]c(-c5ccc(OC)c(OC)c5)c(CC(F)(F)F)c4c3)CC2)C1 (stereo not shown) [Example 421, 1-(2-(4-(2-(3,4-dimethoxyphenyl)-3-(2,2,2-trifluoroethyl)-1H-indol-5-yl)piperidin-1-yl)-2-oxoethyl)-N,N-diethylpiperidine-3-carboxamide]",2.28,0.071
"COc1ccc(-c2[nH]c3ccc(C4CCN(C5CCN(Cc6nccs6)CC5)CC4)cc3c2C)cc1OC [Example 72, 2-((4-(2-(3,4-dimethoxyphenyl)-3-methyl-1H-indol-5-yl)-[1,4′-bipiperidin]-1′-yl)methyl)thiazole]",0.356,0.312
"COc1ccc(-c2[nH]c3ccc(C4CCN(C5CCN(Cc6cccn6C)CC5)CC4)cc3c2C)cc1OC [Example 78, 2-(3,4-dimethoxyphenyl)-3-methyl-5-(1′-((1-methyl-1H-pyrrol-2-yl)methyl)-[1,4′-bipiperidin]-4-yl)-1H-indole]",0.13,0.143
"COc1ccc(-c2[nH]c3ccc(C4CCN(C(=O)CN5CCC(N(C)C)CC5)CC4)cc3c2C)cc1OC [Example 407, 1-(4-(2-(3,4-dimethoxyphenyl)-3-methyl-1H-indol-5-yl)piperidin-1-yl)-2-(4-(dimethylamino)piperidin-1-yl)ethan-1-one]",11.5,≥ 50
"COc1ccc(-c2[nH]c3ccc(C4CCN(C(=O)CN(C)CCO)CC4)cc3c2C)cc1OC [Example 408, 1-(4-(2-(3,4-dimethoxyphenyl)-3-methyl-1H-indol-5-yl)piperidin-1-yl)-2-((2-hydroxyethyl)(methyl)amino)ethan-1-one]",2,4.77
"CCN1CCCC(N2CCC(c3ccc4[nH]c(-c5ccc(OC)c(OC)c5)c(C)c4c3)CC2)CC1 (stereo not shown) [Example 97, 2-(3,4-dimethoxyphenyl)-5-(1-(1-ethylazepan-4-yl)piperidin-4-yl)-3-methyl-1H-indole]",0.397,0.196
"CCN(CC)C(=O)C1CCCN(CC(=O)N2CCC(c3ccc4[nH]c(-c5ccc(OC)c(OC)c5)c(CC(F)(F)F)c4c3)CC2)C1 (stereo not shown) [Example 418, 1-(2-(4-(2-(3,4-dimethoxyphenyl)-3-(2,2,2-trifluoroethyl)-1H-indol-5-yl)piperidin-1-yl)-2-oxoethyl)-N,N-diethylpiperidine-3-carboxamide]",1.45,0.077
"COc1ccc(-c2[nH]c3ccc(C4CCN(C(=O)CN5CCCN(C)CC5)CC4)cc3c2C)cc1OC [Example 410, 1-(4-(2-(3,4-dimethoxyphenyl)-3-methyl-1H-indol-5-yl)piperidin-1-yl)-2-(4-methyl-1,4-diazepan-1-yl)ethan-1-one]",5.25,21.1
"COc1ccc(-c2[nH]c3ccc(C4CCN(C5CCN(C6CCC(O)CC6)CC5)CC4)cc3c2C)cc1OC (stereo not shown) [Example 84, 4-(4-(2-(3,4-dimethoxyphenyl)-3-methyl-1H-indol-5-yl)-[1,4′-bipiperidin]-1′-yl)cyclohexan-1-ol]",0.192,0.143
COc1ccc(-c2[nH]c3ccc(C4CCN(C5CCN(CC6CCOC6)CC5)CC4)cc3c2C)cc1OC (stereo not shown) [Example 74],0.062,0.102
"COc1ccc(-c2[nH]c3ccc(C4CCN(C5CCCN(CC6CC6)CC5)CC4)cc3c2C)cc1OC (stereo not shown) [Example 94, 5-(1-(1-(cyclopropylmethyl)azepan-4-yl)piperidin-4-yl)-2-(3,4-dimethoxyphenyl)-3-methyl-1H-indole]",0.195,0.281
"COc1ccc(-c2[nH]c3ccc(C4CCN(C5CC(C)(C)NC(C)(C)C5)CC4)cc3c2C)cc1OC [Example 48, 2-(3,4-dimethoxyphenyl)-3-methyl-5-(2′,2′,6′,6′-tetramethyl-[1,4′-bipiperidin]-4-yl)-1H-indole]",0.435,0.616
"C#CCCCCC(=O)NCCN1CCC(c2ccc3[nH]c(-c4ccc(OC)c(OC)c4)c(C(C)C)c3c2)CC1 [Example 411, N-(2-(4-(2-(3,4-dimethoxyphenyl)-3-isopropyl-1H-indol-5-yl)piperidin-1-yl)ethyl)hept-6-ynamide]",3.89,0.036
"COc1ccc(-c2[nH]c3ccc(C4CCN(C(=O)CNCCC(C)O)CC4)cc3c2C)cc1OC (stereo not shown) [Example 406, 1-(4-(2-(3,4-dimethoxyphenyl)-3-methyl-1H-indol-5-yl)piperidin-1-yl)-2-((3-hydroxybutyl)amino)ethan-1-one]",3.89,2.05
